# Measurements reported in paper PMC5218480 (PLoS ONE, 2017).
# Test system: MV-4-11 cells
# Assay: Gene expression microarray analysis (Affymetrix PrimeView) and GSEA
# Assay type: cell-based, human
# Design: RFU PODN (11730768_x_at) / Fold change /veh PODN (11730768_x_at) / RFU LINC00158 (11744669_a_at) / Fold change /veh LINC00158 (11744669_a_at) / RFU DUSP10 (11751237_a_at) / Fold change /veh DUSP10 (11751237_a_at) / RFU ID3 (11757404_x_at) / Fold change /veh ID3 (11757404_x_at) / RFU PLEKHG5 (11737974_s_at) / Fold change /veh PLEKHG5 (11737974_s_at) / RFU LRRC4B (11730491_at) / Fold change /veh LRRC4B (11730491_at) / RFU GIMAP4 (11747438_a_at) / Fold change /veh GIMAP4 (11747438_a_at) / RFU KRT8 (11758183_x_at) / Fold change /veh KRT8 (11758183_x_at) / RFU CNN1 (11734310_a_at) / Fold change /veh CNN1 (11734310_a_at) / RFU VPS37D (11726825_at) / Fold change /veh VPS37D (11726825_at) / RFU C10orf10 (11716522_x_at) / Fold change /veh C10orf10 (11716522_x_at) / RFU KIR2DL2 /// KIR2DL4 /// KIR2DL5A /// KIR2DL5B /// KIR2DS1 /// KIR2DS2 /// KIR2DS3 /// KIR2DS4 /// KIR3DL3 /// KIR3DL3 /// KIR3DS1 (11738374_at) / Fold change /veh KIR2DL2 /// KIR2DL4 /// KIR2DL5A /// KIR2DL5B /// KIR2DS1 /// KIR2DS2 /// KIR2DS3 /// KIR2DS4 /// KIR3DL3 /// KIR3DL3 /// KIR3DS1 (11738374_at) / RFU C1QL1 (11718748_at) / Fold change /veh C1QL1 (11718748_at) / RFU TMPRSS4 (11747572_a_at) / Fold change /veh TMPRSS4 (11747572_a_at) / RFU HAMP (11756126_x_at) / Fold change /veh HAMP (11756126_x_at) / RFU RNFT2 (11725882_a_at) / Fold change /veh RNFT2 (11725882_a_at) / RFU NR4A2 (11747474_a_at) / Fold change /veh NR4A2 (11747474_a_at) / RFU ABCC12 (11746883_a_at) / Fold change /veh ABCC12 (11746883_a_at) / RFU TMEM136 (11760407_x_at) / Fold change /veh TMEM136 (11760407_x_at) / RFU CLDN22 /// WWC2 (11732394_at) / Fold change /veh CLDN22 /// WWC2 (11732394_at) / RFU HLA-DPB1 (11760878_x_at) / Fold change /veh HLA-DPB1 (11760878_x_at) / RFU SPINT1 (11716480_a_at) / Fold change /veh SPINT1 (11716480_a_at) / RFU GAP43 (11754022_s_at) / Fold change /veh GAP43 (11754022_s_at) / RFU A4GNT (11735810_at) / Fold change /veh A4GNT (11735810_at) / RFU PRB3 (11715151_x_at) / Fold change /veh PRB3 (11715151_x_at) / RFU TUBB4B (11761932_at) / Fold change /veh TUBB4B (11761932_at) / RFU CAPN14 (11732068_a_at) / Fold change /veh CAPN14 (11732068_a_at) / RFU TMCC2 (11721928_a_at) / Fold change /veh TMCC2 (11721928_a_at) / RFU IRGQ (11745062_a_at) / Fold change /veh IRGQ (11745062_a_at) / RFU FAM174B (11720279_a_at) / Fold change /veh FAM174B (11720279_a_at) / RFU TMPRSS4 (11748680_a_at) / Fold change /veh TMPRSS4 (11748680_a_at) / RFU FAM212B (11763350_a_at) / Fold change /veh FAM212B (11763350_a_at) / RFU PLEKHG5 (11743358_a_at) / Fold change /veh PLEKHG5 (11743358_a_at) / RFU ZSCAN30 (11745921_a_at) / Fold change /veh ZSCAN30 (11745921_a_at) / RFU CMKLR1 (11741424_a_at) / Fold change /veh CMKLR1 (11741424_a_at) / RFU LOC101060620 /// MAPK8IP1 (11723275_at) / Fold change /veh LOC101060620 /// MAPK8IP1 (11723275_at) / RFU SPTSSB (11747773_x_at) / Fold change /veh SPTSSB (11747773_x_at) / RFU PRSS12 (11739890_at) / Fold change /veh PRSS12 (11739890_at) / RFU BIN1 (11741810_x_at) / Fold change /veh BIN1 (11741810_x_at) / RFU WNT11 (11732464_a_at) / Fold change /veh WNT11 (11732464_a_at) / RFU C10orf10 (11716521_a_at) / Fold change /veh C10orf10 (11716521_a_at) / RFU C5orf56 (11738089_at) / Fold change /veh C5orf56 (11738089_at) / RFU CYB561 (11721691_x_at) / Fold change /veh CYB561 (11721691_x_at) / RFU ANKRD19P (11752326_a_at) / Fold change /veh ANKRD19P (11752326_a_at) / RFU OR2T12 /// OR2T33 /// OR2T8 (11738714_s_at) / Fold change /veh OR2T12 /// OR2T33 /// OR2T8 (11738714_s_at) / RFU VCAN (11748164_a_at) / Fold change /veh VCAN (11748164_a_at) / RFU JSRP1 (11732532_at) / Fold change /veh JSRP1 (11732532_at) / RFU KRTAP10-11 (11738290_x_at) / Fold change /veh KRTAP10-11 (11738290_x_at) / RFU MYO3A (11730013_a_at) / Fold change /veh MYO3A (11730013_a_at) / RFU EBF3 (11725865_a_at) / Fold change /veh EBF3 (11725865_a_at) / RFU CAMK2N1 (11719241_x_at) / Fold change /veh CAMK2N1 (11719241_x_at) / RFU C5orf56 (11738088_a_at) / Fold change /veh C5orf56 (11738088_a_at) / RFU OLFML3 (11715873_a_at) / Fold change /veh OLFML3 (11715873_a_at) / RFU LOC100653217 /// NTM (11731650_a_at) / Fold change /veh LOC100653217 /// NTM (11731650_a_at) / RFU MAPK11 (11762145_a_at) / Fold change /veh MAPK11 (11762145_a_at) / RFU FIZ1 (11724087_x_at) / Fold change /veh FIZ1 (11724087_x_at) / RFU OASL (11726364_x_at) / Fold change /veh OASL (11726364_x_at) / RFU SOX15 (11748057_x_at) / Fold change /veh SOX15 (11748057_x_at) / RFU CD79A (11719716_a_at) / Fold change /veh CD79A (11719716_a_at) / RFU HIST1H1D (11736915_at) / Fold change /veh HIST1H1D (11736915_at) / RFU CASKIN2 (11723855_a_at) / Fold change /veh CASKIN2 (11723855_a_at) / RFU LOC730098 (11760151_x_at) / Fold change /veh LOC730098 (11760151_x_at) / RFU OR4N2 (11742367_at) / Fold change /veh OR4N2 (11742367_at) / RFU PRRT2 (11749266_a_at) / Fold change /veh PRRT2 (11749266_a_at) / RFU SNX32 (11753110_a_at) / Fold change /veh SNX32 (11753110_a_at) / RFU CDHR5 (11726645_a_at) / Fold change /veh CDHR5 (11726645_a_at) / RFU RCAN1 (11760418_a_at) / Fold change /veh RCAN1 (11760418_a_at) / RFU FAM167A (11723789_a_at) / Fold change /veh FAM167A (11723789_a_at) / RFU FAM26E (11764081_at) / Fold change /veh FAM26E (11764081_at) / RFU ISYNA1 (11749810_s_at) / Fold change /veh ISYNA1 (11749810_s_at) / RFU ACY1 (11761880_at) / Fold change /veh ACY1 (11761880_at) / RFU 11764098_at / Fold change /veh 11764098_at / RFU SAMD14 (11745864_x_at) / Fold change /veh SAMD14 (11745864_x_at) / RFU NPB (11741838_a_at) / Fold change /veh NPB (11741838_a_at) / RFU TMPRSS6 (11731388_a_at) / Fold change /veh TMPRSS6 (11731388_a_at) / RFU KRTAP10-2 (11738614_at) / Fold change /veh KRTAP10-2 (11738614_at) / RFU ARHGAP8 /// PRR5-ARHGAP8 (11727945_x_at) / Fold change /veh ARHGAP8 /// PRR5-ARHGAP8 (11727945_x_at) / RFU KRTAP5-7 /// NADSYN1 (11734609_at) / Fold change /veh KRTAP5-7 /// NADSYN1 (11734609_at) / RFU RASL12 (11751679_a_at) / Fold change /veh RASL12 (11751679_a_at) / RFU CDKN2B (11736163_a_at) / Fold change /veh CDKN2B (11736163_a_at) / RFU PRF1 (11729649_at) / Fold change /veh PRF1 (11729649_at) / RFU, ZNF638 /// ZNF638-IT1 / Fold change vs veh, ZNF638 /// ZNF638-IT1 / RFU, PANK3 / Fold change vs veh, PANK3 / RFU, SH3YL1 / Fold change vs veh, SH3YL1 / RFU, ZEB2 / Fold change vs veh, ZEB2 / RFU, NRIP1 / Fold change vs veh, NRIP1 / RFU, PTTG1IP / Fold change vs veh, PTTG1IP / RFU, CAPN2 / Fold change vs veh, CAPN2 / RFU, MED14 / Fold change vs veh, MED14 / RFU, SNORA58 / Fold change vs veh, SNORA58 / RFU, C1orf63 / Fold change vs veh, C1orf63 / RFU, LRRFIP1 / Fold change vs veh, LRRFIP1 / RFU, NDUFAF7 / Fold change vs veh, NDUFAF7 / RFU, SLC12A2 / Fold change vs veh, SLC12A2 / RFU, IBTK / Fold change vs veh, IBTK / RFU, ESF1 / Fold change vs veh, ESF1 / Fold change vs veh, TMEM50B / RFU, TAOK1 / Fold change vs veh, TAOK1 / RFU, ACBD3 / Fold change vs veh, ACBD3 / RFU, TMA16 / Fold change vs veh, TMA16 / RFU, RWDD3 / Fold change vs veh, RWDD3 / RFU, BCAT1 / Fold change vs veh, BCAT1 / RFU, EDEM3 / Fold change vs veh, EDEM3 / RFU, TMEM33 / Fold change vs veh, TMEM33 / RFU, WDR75 / Fold change vs veh, WDR75 / RFU, AHCTF1 / Fold change vs veh, AHCTF1 / RFU, TFRC / Fold change vs veh, TFRC / RFU, ZDHHC17 / Fold change vs veh, ZDHHC17 / RFU, NOM1 / Fold change vs veh, NOM1 / RFU, ARL8B / Fold change vs veh, ARL8B / RFU, ZBTB11 / Fold change vs veh, ZBTB11 / RFU, TAMM41 / Fold change vs veh, TAMM41 / RFU, KIAA1704 /// LOC100996395 / Fold change vs veh, KIAA1704 /// LOC100996395 / RFU, ING1 / Fold change vs veh, ING1 / RFU, TRMT61B / Fold change vs veh, TRMT61B / RFU, FUBP3 / Fold change vs veh, FUBP3 / RFU, TP53 / Fold change vs veh, TP53 / RFU, TNKS2 / Fold change vs veh, TNKS2 / RFU, ZFP14 / Fold change vs veh, ZFP14 / RFU, ACTR2 / Fold change vs veh, ACTR2 / RFU, PPP3R1 / Fold change vs veh, PPP3R1 / RFU, PIK3R1 / Fold change vs veh, PIK3R1 / RFU, HNRNPA1 / Fold change vs veh, HNRNPA1 / RFU, RNF170 / Fold change vs veh, RNF170 / RFU, ZNF28 / Fold change vs veh, ZNF28 / RFU, RNGTT / Fold change vs veh, RNGTT / RFU, OGT / Fold change vs veh, OGT / RFU, BRD1 / Fold change vs veh, BRD1 / RFU, MARS / Fold change vs veh, MARS / RFU, ZNF655 / Fold change vs veh, ZNF655 / RFU, FAHD1 / Fold change vs veh, FAHD1 / RFU, BDP1 / Fold change vs veh, BDP1 / RFU, LRRCC1 / Fold change vs veh, LRRCC1 / RFU, ARID1A / Fold change vs veh, ARID1A / RFU, ZNF146 / Fold change vs veh, ZNF146 / RFU, ZNF330 / Fold change vs veh, ZNF330 / RFU, GPN3 / Fold change vs veh, GPN3 / RFU, C9orf123 / Fold change vs veh, C9orf123 / RFU, N4BP2L2 / Fold change vs veh, N4BP2L2 / RFU, ARFIP1 / Fold change vs veh, ARFIP1 / RFU, FAM179B / Fold change vs veh, FAM179B / RFU, BCL10 / Fold change vs veh, BCL10 / RFU, UHRF1BP1L / Fold change vs veh, UHRF1BP1L / RFU, BET1 / Fold change vs veh, BET1 / RFU, CNOT2 / Fold change vs veh, CNOT2 / RFU, ZNF268 / Fold change vs veh, ZNF268 / Fold change vs veh, ZNF507 / RFU, DGCR2 / Fold change vs veh, DGCR2 / RFU, WDSUB1 / Fold change vs veh, WDSUB1 / Fold change vs veh, HSP90B1 /// MIR3652 / RFU, ADSS / Fold change vs veh, ADSS / RFU, GK / Fold change vs veh, GK / RFU, ZNF148 / Fold change vs veh, ZNF148 / RFU, TAF9 / Fold change vs veh, TAF9 / RFU, SLC1A5 / Fold change vs veh, SLC1A5 / RFU, SLMO2 / Fold change vs veh, SLMO2 / RFU, ABCC4 / Fold change vs veh, ABCC4 / RFU, LOC101060439 /// RAP1B / Fold change vs veh, LOC101060439 /// RAP1B / RFU, RFX7 / Fold change vs veh, RFX7 / RFU, GTPBP10 / Fold change vs veh, GTPBP10 / RFU, CNEP1R1 / Fold change vs veh, CNEP1R1 / RFU, BIVM-ERCC5 /// ERCC5 / Fold change vs veh, BIVM-ERCC5 /// ERCC5 / RFU, ILF3 / Fold change vs veh, ILF3 / RFU 11762660_at / Fold change /veh 11762660_at / RFU VCAN (11757783_s_at) / Fold change /veh VCAN (11757783_s_at) / RFU DDX43 (11728927_at) / Fold change /veh DDX43 (11728927_at) / RFU KRT8 (11758188_x_at) / Fold change /veh KRT8 (11758188_x_at) / RFU NKD1 (11759106_at) / Fold change /veh NKD1 (11759106_at) / RFU SRD5A1 (11742802_a_at) / Fold change /veh SRD5A1 (11742802_a_at) / RFU TPSAB1 /// TPSB2 (11721975_s_at) / Fold change /veh TPSAB1 /// TPSB2 (11721975_s_at) / RFU GSTM3 (11746129_a_at) / Fold change /veh GSTM3 (11746129_a_at) / RFU IL23R (11737362_x_at) / Fold change /veh IL23R (11737362_x_at) / RFU TMEM51 (11727254_a_at) / Fold change /veh TMEM51 (11727254_a_at) / RFU PIWIL2 (11732686_x_at) / Fold change /veh PIWIL2 (11732686_x_at) / RFU ORM1 (11744905_x_at) / Fold change /veh ORM1 (11744905_x_at) / RFU CCDC152 (11743942_at) / Fold change /veh CCDC152 (11743942_at) / RFU ECM1 (11717891_a_at) / Fold change /veh ECM1 (11717891_a_at) / RFU IL23R (11748794_a_at) / Fold change /veh IL23R (11748794_a_at) / RFU TNFAIP8L3 (11732012_x_at) / Fold change /veh TNFAIP8L3 (11732012_x_at) / RFU MBOAT4 (11741988_at) / Fold change /veh MBOAT4 (11741988_at) / RFU 11764193_at / Fold change /veh 11764193_at / RFU TMEM53 (11763286_at) / Fold change /veh TMEM53 (11763286_at) / RFU MAGEB2 (11727129_at) / Fold change /veh MAGEB2 (11727129_at) / RFU TMEM200A (11744735_a_at) / Fold change /veh TMEM200A (11744735_a_at) / RFU CCDC152 (11751479_a_at) / Fold change /veh CCDC152 (11751479_a_at) / RFU FAM211A (11726209_a_at) / Fold change /veh FAM211A (11726209_a_at) / RFU RGS16 (11746705_a_at) / Fold change /veh RGS16 (11746705_a_at) / RFU VCAN (11755009_s_at) / Fold change /veh VCAN (11755009_s_at) / RFU RHOB (11743442_s_at) / Fold change /veh RHOB (11743442_s_at) / RFU RGS16 (11720943_a_at) / Fold change /veh RGS16 (11720943_a_at) / RFU RGS16 (11720944_at) / Fold change /veh RGS16 (11720944_at) / RFU, VPS4B / Fold change vs veh, VPS4B / RFU, CREB1 / Fold change vs veh, CREB1 / RFU, DNAJC13 / Fold change vs veh, DNAJC13 / RFU, GNAQ / Fold change vs veh, GNAQ / RFU, CDK5R1 / Fold change vs veh, CDK5R1 / RFU, ZRANB3 / Fold change vs veh, ZRANB3 / RFU, CUL4A / Fold change vs veh, CUL4A / RFU, CCNY / Fold change vs veh, CCNY / RFU, UFL1 / Fold change vs veh, UFL1 / RFU, COG3 / Fold change vs veh, COG3 / RFU, DIAPH2 / Fold change vs veh, DIAPH2 / RFU, SKA2 / Fold change vs veh, SKA2 / RFU, AFF3 / Fold change vs veh, AFF3 / RFU, LMF1 / Fold change vs veh, LMF1 / RFU, IPO11 / Fold change vs veh, IPO11 / RFU, DFFB / Fold change vs veh, DFFB / RFU, FOXP1 / Fold change vs veh, FOXP1 / RFU, CARD8 / Fold change vs veh, CARD8 / RFU, STRN3 / Fold change vs veh, STRN3 / RFU, ADK / Fold change vs veh, ADK / RFU, RASSF2 / Fold change vs veh, RASSF2 / RFU, WIPF1 / Fold change vs veh, WIPF1 / RFU, LARP1B / Fold change vs veh, LARP1B / RFU, RASA1 / Fold change vs veh, RASA1 / RFU, RB1 / Fold change vs veh, RB1 / RFU, PPFIA1 / Fold change vs veh, PPFIA1 / RFU, MAT2A / Fold change vs veh, MAT2A / RFU, CCT5 / Fold change vs veh, CCT5 / RFU, WDR92 / Fold change vs veh, WDR92 / RFU, CUX1 / Fold change vs veh, CUX1 / RFU, TTC7A / Fold change vs veh, TTC7A / RFU, TMEM135 / Fold change vs veh, TMEM135 / RFU, DEPTOR / Fold change vs veh, DEPTOR / RFU, CPM / Fold change vs veh, CPM / RFU, DNAJB6 / Fold change vs veh, DNAJB6 / RFU, CACNA2D3 / Fold change vs veh, CACNA2D3 / RFU, DTX4 / Fold change vs veh, DTX4 / RFU, TFCP2 / Fold change vs veh, TFCP2 / RFU, GMCL1 /// GMCL1P1 / Fold change vs veh, GMCL1 /// GMCL1P1 / RFU, AEBP2 / Fold change vs veh, AEBP2 / RFU, SNHG1 /// SNORD22 /// SNORD25 /// SNORD26 /// SNORD27 /// SNORD28 /// SNORD29 /// SNORD31 / Fold change vs veh, SNHG1 /// SNORD22 /// SNORD25 /// SNORD26 /// SNORD27 /// SNORD28 /// SNORD29 /// SNORD31 / Fold change (Aza/veh), C12orf56 (ProbeSet 11735607_a_at) / Fold change (ACY-1035/veh), C12orf56 (ProbeSet 11735607_a_at) / Fold change (Aza/veh), FGFR1OP (ProbeSet 11751329_s_at) / Fold change (ACY-1035/veh), FGFR1OP (ProbeSet 11751329_s_at) / Fold change (Aza/veh), VPS36 (ProbeSet 11739960_a_at) / Fold change (ACY-1035/veh), VPS36 (ProbeSet 11739960_a_at) / RFU SYPL1 (11715823_x_at) / Fold change /veh SYPL1 (11715823_x_at) / RFU IGFBP7 (11715501_s_at) / Fold change /veh IGFBP7 (11715501_s_at) / RFU REEP3 (11722064_at) / Fold change /veh REEP3 (11722064_at) / RFU IGLL1 (11728026_x_at) / Fold change /veh IGLL1 (11728026_x_at): dose or concentration left out as unconfirmed
# Conditions: MV-4-11 cells, 48 hours
smiles,measurement,value
Nc1ccc(-c2cccs2)cc1NC(=O)c1ccc2c(c1)cc(C1CC1)n2CCN1CCOCC1 [ACY-1035],RFU OASL (11726364_x_at),41.33 RFU
